Experimental data from US20170001990A1 (Genentech, Inc., priority 2014, published 2017).

These compounds were tested against Human recombinant carboxy-terminal his-tagged LDHA (amino acids 2-332) (Homo sapiens, UniProt P00338) (assay: LDHA enzyme inhibition assay (NADH fluorescence)). Conditions: LDHA IC50 (μM), 1 nM LDHA, NADH and pyruvate, stereochemistry of tested sample given.
Method: Test compounds were diluted in 100% DMSO with 1:3 serial dilutions. […] For the enzyme reaction, serially diluted compounds were added to a mixture of enzyme and NADH. […] Following the baseline read, pyruvate was added to the assay plates and the plates were read with excitation 340 nm and emission 480 nm for 10 minutes every 2.5 seconds. A suitable linear timeframe was selected (150-400 s) to calculate the slope of each concentration tested. The raw data were fitted to 4-parameter dose-response curves using the following equation:
fit=(A+((B−A)/(1+((C/x)̂D))))
inv=(C/((((B−A)/(y−A))−)̂(1/D)))
res=(y−fit) • where A=minimum y, B=maximum y, C=50% y max, and D=slope factor.
The curve bottom was set to the background rate (initial 5 second recording prior to addition of pyruvate) and curve top was set to no inhibitor (DMSO only) control wells rate.
The compounds of the present invention were tested for their capacity to inhibit LDHA activity and activation as described in the enzyme inhibition assay described above.

Row | IC50 | SMILES
1 | 0.019 µM | CC(CC1CC1)Oc1cccc(C2(c3ccsc3)CC(=O)C(Sc3ccccc3Cl)C(=O)N2)n1 (single isomer, unassigned) [Example 251, 3-(2-chlorophenyl)sulfanyl-6-[6-(2-cyclopropyl-1-methyl-ethoxy)-2-pyridyl]-6-(3-thienyl) piperidine-2,4-dione]
2 | 0.079 µM | O=C1CC(c2ccsc2)(c2cccc(OCC3CCCC3)n2)NC(=O)C1Sc1ccccc1Cl (single isomer, unassigned) [Example 252, 3-(2-chlorophenyl)sulfanyl-6-[6-(cyclopentyl-methoxy)-2-pyridyl]-6-(3-thienyl)pipereidine-2,4-dione]
3 | 0.047 µM | O=C1CC(c2ccsc2)(c2cccc(OCC(F)F)n2)NC(=O)C1Sc1ccccc1Cl (single isomer, unassigned) [Example 254, 3-(2-chlorophenyl)sulfanyl-6-[6-(2,2-difluoroethoxy)-2-pyridyl]-6-(3-thienyl) piperidine-2,4-dione]
4 | 0.062 µM | O=C1CC(c2ccsc2)(c2cccc(Cc3ccc(F)c(F)c3)n2)NC(=O)C1Sc1ccccc1Cl (single isomer, unassigned) [Example 256, 3-((2-chlorophenyl)thio)-6-(6-(3,4-difluorobenzyl)pyridin-2-yl)-6-(thiophen-3-yl)piperidine-2,4-dione]
5 | 0.104 µM | CN(c1ccc(F)cc1)c1cccc(C2(c3ccsc3)CC(=O)C(Sc3ccccc3Cl)C(=O)N2)n1 (single isomer, unassigned) [Example 262, 3-((2-chlorophenyl)thio)-6-(6-((4-fluorophenyl) (methyl)amino)pyridin-2-yl)-6-(thiophen-3-yl)piperidine-2,4-dione]
6 | 0.022 µM | CN(c1ccc(F)cc1)c1cccc(C2(c3ccsc3)CC(=O)C(Sc3ccccc3Cl)C(=O)N2)n1 (single isomer, unassigned) [Example 265, 3-((2-chlorophenyl)thio)-6-(6-((4-fluorophenyl) (methyl)amino)pyridin-2-yl)-6-(thiophen-3-yl) piperidine-2,4-dione]
7 | 0.099 µM | CN(c1ccc(F)cc1)c1cccc(C2(c3ccsc3)CC(=O)C(Sc3ccccc3Cl)C(=O)N2)n1 (single isomer, unassigned) [Example 266, 3-((2-chlorophenyl)thio)-6-(6-((4-fluorophenyl) (methyl)amino)pyridin-2-yl)-6-(thiophen-3-yl) piperidine-2,4-dione]
8 | 0.402 µM | O=C1CC(c2ccsc2)(c2cccc(CCc3ccc(F)cc3)n2)NC(=O)C1Sc1ccccc1Cl (single isomer, unassigned) [Example 268, 3-((2-chlorophenyl)thio)-6-(6-(4-fluorophenethyl)pyridin-2-yl)-6-(thiophen-3-yl)piperidine-2,4-dione]
9 | 0.189 µM | O=C1CC(c2ccsc2)(c2cccc(Cc3ccc(F)c(F)c3)n2)NC(=O)C1Sc1ccccc1Cl (single isomer, unassigned) [Example 281, 3-((2-chlorophenyl)thio)-6-(6-(3,4-difluorobenzyl)pyridin-2-yl)-6-(thiophen-3-yl)piperidine-2,4-dione]
10 | 0.012 µM | O=C1CC(c2ccsc2)(c2cccc(Cc3ccc(F)c(F)c3)n2)NC(=O)C1Sc1ccccc1Cl (single isomer, unassigned) [Example 282, 3-((2-chlorophenyl)thio)-6-(6-(3,4-difluorobenzyl)pyridin-2-yl)-6-(thiophen-3-yl)piperidine-2,4-dione]
11 | 0.037 µM | COc1cc(Cc2cccc(C3(c4ccsc4)CC(=O)C(Sc4ccccc4Cl)C(=O)N3)n2)ccc1F (single isomer, unassigned) [Example 283, 3-((2-chlorophenyl)thio)-6-(6-(4-fluoro-3-methoxy-benzyl)pyridin-2-yl)-6-(thiophen-3-yl)piperidine-2,4-dione]

Further lines, the compound ahead of its results:

Row | SMILES | IC50
12 | CC(Oc1cccc(C2(c3ccsc3)CC(=O)C(Sc3ccccc3Cl)C(=O)N2)n1)C1CC1 (single isomer, unassigned) [Example 214, 3-(2-chlorophenyl)sulfanyl-6-[6-(1-cyclopropyl-ethoxy)-2-pyridyl]-6-(3-thienyl)piperidine-2,4-dione] | 0.017 µM
13 | O=C1CC(c2ccsc2)(c2cccc(OCC3CC(F)(F)C3)n2)NC(=O)C1Sc1ccccc1Cl (single isomer, unassigned) [Example 215, 3-(2-chlorophenyl)sulfanyl-6-[6-[(3,3-difluorocyclo-butyl)methoxy]-2-pyridyl]-6-(3-thienyl)piperidine-2,4-dione] | 0.014 µM
14 | O=C1CC(c2ccsc2)(c2cccc(Oc3cc(F)cc(CO)c3)n2)NC(=O)C1Sc1ccccc1Cl (single isomer, unassigned) [Example 216, 3-(2-chlorophenyl)sulfanyl-6-[6-[3-fluoro-5-(hydroxy-methyl)phenoxy]-2-pyridyl]-6-(3-thienyl)piperidine-2,4-dione] | 0.002 µM
15 | O=C1CC(c2ccsc2)(c2cccc(OCC3CCCO3)n2)NC(=O)C1Sc1ccccc1Cl (single isomer, unassigned) [Example 221, 3-(2-chlorophenyl)sulfanyl-6-[6-(tetrahydrofuran-2-ylmethoxy)-2-pyridyl]-6-(3-thienyl)piperidine-2,4-dione] | 0.32 µM
16 | O=C1CC(c2ccsc2)(c2cccc(OCC(F)F)n2)NC(=O)C1Sc1ccccc1Cl (single isomer, unassigned) [Example 223, 3-(2-chlorophenyl)sulfanyl-6-[6-(2,2-difluoroethoxy)-2-pyridyl]-6-(3-thienyl) piperidine-2,4-dione] | 0.057 µM
17 | O=C1CC(c2ccsc2)(c2cccc(OCC3COC3)n2)NC(=O)C1Sc1ccccc1Cl (single isomer, unassigned) [Example 225, 3-(2-chlorophenyl)sulfanyl-6-[6-(oxetan-3-ylmethoxy)-2-pyridyl]-6-(3-thienyl) piperidine-2,4-dione] | 0.103 µM
18 | CCOCCOc1cccc(C2(c3ccsc3)CC(=O)C(Sc3ccccc3Cl)C(=O)N2)n1 (single isomer, unassigned) [Example 227, 3-(2-chlorophenyl)sulfanyl-6-[6-(2-ethoxyethoxy)-2-pyridyl]-6-(3-thienyl) piperidine-2,4-dione] | 0.015 µM
19 | COCCCOc1cccc(C2(c3ccsc3)CC(=O)C(Sc3ccccc3Cl)C(=O)N2)n1 (single isomer, unassigned) [Example 228, 3-(2-chlorophenyl)sulfanyl-6-[6-(3-methoxypropoxy)-2-pyridyl]-6-(3-thienyl) piperidine-2,4-dione] | 0.419 µM
20 | O=C1CC(c2ccsc2)(c2cccc(OCC3CCC(CO)CC3)n2)NC(=O)C1Sc1ccccc1Cl (single isomer, unassigned) [Example 233, 3-((2-chlorophenyl)thio)-6-(6-((4-(hydroxymethyl)cyclohexyl)methoxy)pyridin-2-yl)-6-(thiophen-3-yl)piperidine-2,4-dione] | 0.017 µM
21 | O=C1CC(c2ccsc2)(c2cccc(Oc3cc(F)cc(CO)c3)n2)NC(=O)C1Sc1ccccc1Cl (single isomer, unassigned) [Example 234, 3-(2-chlorophenyl)sulfanyl-6-[6-[3-fluoro-5-(hydroxy-methyl)phenoxy]-2-pyridyl]-6-(3-thienyl)piperidine-2,4-dione] | 0.004 µM
22 | O=C1CC(c2ccsc2)(c2cccc(OCC3CCCO3)n2)NC(=O)C1Sc1ccccc1Cl (single isomer, unassigned) [Example 235, 3-(2-chlorophenyl)sulfanyl-6-[6-(tetrahydrofuran-2-ylmethoxy)-2-pyridyl]-6-(3-thienyl)piperidine-2,4-dione] | 0.021 µM
23 | O=C1CC(c2ccsc2)(c2cccc(OCC3COC3)n2)NC(=O)C1Sc1ccccc1Cl (single isomer, unassigned) [Example 236, 3-(2-chlorophenyl)sulfanyl-6-[6-(oxetan-3-ylmethoxy)-2-pyridyl]-6-(3-thienyl) piperidine-2,4-dione] | 0.025 µM
24 | COCCCOc1cccc(C2(c3ccsc3)CC(=O)C(Sc3ccccc3Cl)C(=O)N2)n1 (single isomer, unassigned) [Example 237, 3-(2-chlorophenyl)sulfanyl-6-[6-(3-methoxypropoxy)-2-pyridyl]-6-(3-thienyl) piperidine-2,4-dione] | 0.094 µM
25 | O=C1CC(c2ccsc2)(c2cccc(OCC3CCCO3)n2)NC(=O)C1Sc1ccccc1Cl (single isomer, unassigned) [Example 238, 3-(2-chlorophenyl)sulfanyl-6-[6-(tetrahydrofuran-2-ylmethoxy)-2-pyridyl]-6-(3-thienyl)piperidine-2,4-dione] | 0.018 µM
26 | O=C1CC(c2ccsc2)(c2cccc(OCC3CCCO3)n2)NC(=O)C1Sc1ccccc1Cl (single isomer, unassigned) [Example 239, 3-(2-chlorophenyl)sulfanyl-6-[6-(tetrahydrofuran-2-ylmethoxy)-2-pyridyl]-6-(3-thienyl)piperidine-2,4-dione] | 0.015 µM
27 | CC(CC1CC1)Oc1cccc(C2(c3ccsc3)CC(=O)C(Sc3ccccc3Cl)C(=O)N2)n1 (single isomer, unassigned) [Example 241, 3-(2-chlorophenyl)sulfanyl-6-[6-(2-cyclopropyl-1-methyl-ethoxy)-2-pyridyl]-6-(3-thienyl)piperidine-2,4-dione] | 0.003 µM
28 | O=C1CC(c2ccsc2)(c2cccc(OCC3CCCC3)n2)NC(=O)C1Sc1ccccc1Cl (single isomer, unassigned) [Example 243, 3-(2-chlorophenyl)sulfanyl-6-[6-(cyclopentylmethoxy)-2-pyridyl]-6-(3-thienyl) piperidine-2,4-dione] | 0.001 µM
29 | O=C1CC(c2ccsc2)(c2cccc(OCC3CCC(CO)CC3)n2)NC(=O)C1Sc1ccccc1Cl (single isomer, unassigned) [Example 244, 3-(2-chlorophenyl)sulfanyl-6-[6-[[4-(hydroxymethyl)cyclohexyl]methoxy]-2-pyridyl]-6-(3-thienyl) piperidine-2,4-dione] | 0.023 µM
30 | O=C1CC(c2ccsc2)(c2cccc(OCC(F)F)n2)NC(=O)C1Sc1ccccc1Cl (single isomer, unassigned) [Example 245, 3-(2-chlorophenyl)sulfanyl-6-[6-(2,2-difluoroethoxy)-2-pyridyl]-6-(3-thienyl) piperidine-2,4-dione] | 0.018 µM
